This is an account of results in PMC11424896, “Overcoming drug resistance of cancer cells by targeting the FGF1/FGFR1 axis with honokiol or FGF ligand trap” (Frontiers in Pharmacology, 2024).

The target of this assay is T1, full-length FGFR1c (Homo sapiens, UniProt P11362).
T1 construct: gene FGFR1; full-length FGFR1c, pcDNA3.1, stably transfected in U2OS cells (U2OSR1)
Briefly: Western blot of FGFR phosphorylation (pTyr653/[…]) in U2OSR1 cells. The format is cell-based. To be noted: 30 µM honokiol pre-treatment, then 10 ng/mL FGF1 with heparin, 15 min; serum-starved cells.

T1 sequence (P11362 22-822): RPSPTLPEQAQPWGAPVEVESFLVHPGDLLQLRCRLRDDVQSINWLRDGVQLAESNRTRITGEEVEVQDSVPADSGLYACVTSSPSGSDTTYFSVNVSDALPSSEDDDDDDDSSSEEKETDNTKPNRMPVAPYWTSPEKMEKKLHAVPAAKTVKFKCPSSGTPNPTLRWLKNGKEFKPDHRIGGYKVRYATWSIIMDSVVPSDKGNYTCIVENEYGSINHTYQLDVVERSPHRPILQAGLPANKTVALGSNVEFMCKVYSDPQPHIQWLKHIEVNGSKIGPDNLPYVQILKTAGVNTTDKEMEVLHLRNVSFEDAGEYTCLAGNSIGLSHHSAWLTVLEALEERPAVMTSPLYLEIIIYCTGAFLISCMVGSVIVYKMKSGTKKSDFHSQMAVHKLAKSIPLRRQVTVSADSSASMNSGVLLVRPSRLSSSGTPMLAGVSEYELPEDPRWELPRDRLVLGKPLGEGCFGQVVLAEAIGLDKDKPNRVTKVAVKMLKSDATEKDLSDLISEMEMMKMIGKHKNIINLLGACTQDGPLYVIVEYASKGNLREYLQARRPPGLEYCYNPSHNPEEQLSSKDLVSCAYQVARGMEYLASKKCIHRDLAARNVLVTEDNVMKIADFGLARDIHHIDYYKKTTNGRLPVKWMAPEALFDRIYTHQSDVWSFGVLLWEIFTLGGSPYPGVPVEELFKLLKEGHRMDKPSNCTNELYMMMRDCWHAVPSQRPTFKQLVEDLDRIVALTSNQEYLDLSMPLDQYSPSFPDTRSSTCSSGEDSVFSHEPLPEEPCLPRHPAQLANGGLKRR

For the compound `C=CCc1ccc(O)c(-c2ccc(O)c(CC=C)c2)c1` [honokiol], the “p-FGFR inhibition at 30 μM” value is given as “in cells treated with honokiol, FGF1 did not induce activation of either FGFR”.
